Experimental data reported in ChEMBL document CHEMBL1121427, “Decomposition of pharmacological activity indices into mutually independent components using principal component analysis” (J Med Chem, 1980).

Key:
Type in all cases: functional
Parameters in all cases: unit not given here
[1] = tested on: Bacillus subtilis; assay: Inhibitory activity against Bacillus subtilis
[2] = tested on: Staphylococcus aureus; assay: The compound was evaluated for activity against strain Micrococcus aureus
[3] = tested on: Streptococcus pyogenes; assay: The compound was evaluated for activity against strain Streptococcus hemolyticus
[4] = tested on: Enterococcus faecalis; assay: The compound was evaluated for activity against strain Streptococcus faecalis

Row | Compound | -Log C [1] | -Log C [2] | -Log C [3] | -Log C [4]
1 | COC1/C=C/OC2(C)Oc3c(C)c(O)c4c(O)c(cc(OCC(=O)NC(C)(C)C)c4c3C2=O)NC(=O)/C(C)=C\C=C\C(C)C(O)C(C)C(O)C(C)C(OC(C)=O)C1C (stereo unspecified) | 5.42 | 6.73 | 6.43 | 5.83
2 | COC1/C=C/OC2(C)Oc3c(C)c(O)c4c(O)c(cc(OCC(=O)Nc5ccccc5)c4c3C2=O)NC(=O)/C(C)=C\C=C\C(C)C(O)C(C)C(O)C(C)C(OC(C)=O)C1C (stereo unspecified) | 5.43 | 6.92 | 6.84 | 6.04
3 | CCCNC(=O)COc1cc2c(O)c3c(O)c(C)c4c(c13)C(=O)C(C)(O/C=C/C(OC)C(C)C(OC(C)=O)C(C)C(O)C(C)C(O)C(C)/C=C/C=C(/C)C(=O)N2)O4 (stereo unspecified) | 5.41 | 6.5 | 6.42 | 5.82
4 | CCN(C)C(=O)COc1cc2c(O)c3c(O)c(C)c4c(c13)C(=O)C(C)(O/C=C/C(OC)C(C)C(OC(C)=O)C(C)C(O)C(C)C(O)C(C)/C=C/C=C(/C)C(=O)N2)O4 (stereo unspecified) | 6.03 | 7.95 | 7.95 | 7.06
5 | CCNC(=O)COc1cc2c(O)c3c(O)c(C)c4c(c13)C(=O)C(C)(O/C=C/C(OC)C(C)C(OC(C)=O)C(C)C(O)C(C)C(O)C(C)/C=C/C=C(/C)C(=O)N2)O4 (stereo unspecified) | 5.4 | 6.99 | 7.5 | 6.2
6 | CCCN(C)C(=O)COc1cc2c(O)c3c(O)c(C)c4c(c13)C(=O)C(C)(O/C=C/C(OC)C(C)C(OC(C)=O)C(C)C(O)C(C)C(O)C(C)/C=C/C=C(/C)C(=O)N2)O4 (stereo unspecified) | 6.65 | 7.91 | 8.13 | 7.31
7 | COC1/C=C/OC2(C)Oc3c(C)c(O)c4c(O)c(cc(OCC(=O)N5C(C)CCC5C)c4c3C2=O)NC(=O)/C(C)=C\C=C\C(C)C(O)C(C)C(O)C(C)C(OC(C)=O)C1C (stereo unspecified) | 6.67 | 8.22 | 8.22 | 7.45
8 | C=CCN(CC=C)C(=O)COc1cc2c(O)c3c(O)c(C)c4c(c13)C(=O)C(C)(O/C=C/C(OC)C(C)C(OC(C)=O)C(C)C(O)C(C)C(O)C(C)/C=C/C=C(/C)C(=O)N2)O4 (stereo unspecified) | 6.67 | 8.22 | 8.44 | 7.22
9 | COC1/C=C/OC2(C)Oc3c(C)c(O)c4c(O)c(cc(OCC(=O)N(CCCl)CCCl)c4c3C2=O)NC(=O)/C(C)=C\C=C\C(C)C(O)C(C)C(O)C(C)C(OC(C)=O)C1C (stereo unspecified) | 6.38 | 7.24 | 7.47 | 5.77
10 | CCCN(CC)C(=O)COc1cc2c(O)c3c(O)c(C)c4c(c13)C(=O)C(C)(O/C=C/C(OC)C(C)C(OC(C)=O)C(C)C(O)C(C)C(O)C(C)/C=C/C=C(/C)C(=O)N2)O4 (stereo unspecified) | 6.35 | 8.01 | 8.22 | 7.22
11 | COC1/C=C/OC2(C)Oc3c(C)c(O)c4c(O)c(cc(OCC(=O)N(C)C(C)(C)C)c4c3C2=O)NC(=O)/C(C)=C\C=C\C(C)C(O)C(C)C(O)C(C)C(OC(C)=O)C1C (stereo unspecified) | 6.66 | 8.62 | 8.31 | 7.62
12 | COC1/C=C/OC2(C)Oc3c(C)c(O)c4c(O)c(cc(OCC(=O)N5CCCC5)c4c3C2=O)NC(=O)/C(C)=C\C=C\C(C)C(O)C(C)C(O)C(C)C(OC(C)=O)C1C (stereo unspecified) | 5.73 | 7.26 | 8.21 | 6.34
13 | COC1/C=C/OC2(C)Oc3c(C)c(O)c4c(O)c(cc(OCC(=O)N5CCCCC5)c4c3C2=O)NC(=O)/C(C)=C\C=C\C(C)C(O)C(C)C(O)C(C)C(OC(C)=O)C1C (stereo unspecified) | 6.04 | 8.01 | 8.22 | 6.92
14 | COC1/C=C/OC2(C)Oc3c(C)c(O)c4c(O)c(cc(OCC(=O)Nc5ccc(Br)cc5)c4c3C2=O)NC(=O)/C(C)=C\C=C\C(C)C(O)C(C)C(O)C(C)C(OC(C)=O)C1C (stereo unspecified) | 5.78 | 6.48 | 6.66 | 6.56
15 | CCCN(CCC)C(=O)COc1cc2c(O)c3c(O)c(C)c4c(c13)C(=O)C(C)(O/C=C/C(OC)C(C)C(OC(C)=O)C(C)C(O)C(C)C(O)C(C)/C=C/C=C(/C)C(=O)N2)O4 (stereo unspecified) | 6.53 | 8.15 | 8.15 | 7.15
16 | COC1/C=C/OC2(C)Oc3c(C)c(O)c4c(O)c(cc(OCC(=O)N5CCC(C)CC5)c4c3C2=O)NC(=O)/C(C)=C\C=C\C(C)C(O)C(C)C(O)C(C)C(OC(C)=O)C1C (stereo unspecified) | 6.36 | 8.22 | 7.92 | 7.27
17 | COC1/C=C/OC2(C)Oc3c(C)c(O)c4c(O)c(cc(OCC(=O)N(C)C)c4c3C2=O)NC(=O)/C(C)=C\C=C\C(C)C(O)C(C)C(O)C(C)C(OC(C)=O)C1C (stereo unspecified) | 5.72 | 7.12 | 7.89 | 6.02
18 | CCCCN(C)C(=O)COc1cc2c(O)c3c(O)c(C)c4c(c13)C(=O)C(C)(O/C=C/C(OC)C(C)C(OC(C)=O)C(C)C(O)C(C)C(O)C(C)/C=C/C=C(/C)C(=O)N2)O4 (stereo unspecified) | 6.35 | 8.44 | 8.62 | 7.22
19 | COC1/C=C/OC2(C)Oc3c(C)c(O)c4c(O)c(cc(OCC(=O)N(c5ccccc5)c5ccccc5)c4c3C2=O)NC(=O)/C(C)=C\C=C\C(C)C(O)C(C)C(O)C(C)C(OC(C)=O)C1C (stereo unspecified) | 7.05 | 8.65 | 7.55 | 7.65
20 | COC1/C=C/OC2(C)Oc3c(C)c(O)c4c(O)c(cc(OCC(=O)NC(C)C)c4c3C2=O)NC(=O)/C(C)=C\C=C\C(C)C(O)C(C)C(O)C(C)C(OC(C)=O)C1C (stereo unspecified) | 5.41 | 6.7 | 7.12 | 5.9
21 | COC1/C=C/OC2(C)Oc3c(C)c(O)c4c(O)c(cc(OCC(=O)N(C)C5CCCCC5)c4c3C2=O)NC(=O)/C(C)=C\C=C\C(C)C(O)C(C)C(O)C(C)C(OC(C)=O)C1C (stereo unspecified) | 6.68 | 8.15 | 7.98 | 7.53
22 | COC1/C=C/OC2(C)Oc3c(C)c(O)c4c(O)c(cc(OCC(=O)N(C)CCO)c4c3C2=O)NC(=O)/C(C)=C\C=C\C(C)C(O)C(C)C(O)C(C)C(OC(C)=O)C1C (stereo unspecified) | 5.23 | 6.93 | 7.15 | 5.85
23 | CNC(=O)COc1cc2c(O)c3c(O)c(C)c4c(c13)C(=O)C(C)(O/C=C/C(OC)C(C)C(OC(C)=O)C(C)C(O)C(C)C(O)C(C)/C=C/C=C(/C)C(=O)N2)O4 (stereo unspecified) | 7.11 | 6.68 | 5.09 | 5.89
24 | COC1/C=C/OC2(C)Oc3c(C)c(O)c4c(O)c(cc(OCC(N)=O)c4c3C2=O)NC(=O)/C(C)=C\C=C\C(C)C(O)C(C)C(O)C(C)C(OC(C)=O)C1C (stereo unspecified) | 4.78 | 5.7 | 6.62 | 4.91
25 | COC1/C=C/OC2(C)Oc3c(C)c(O)c4c(O)c(cc(OCC(=O)N(CC(C)C)CC(C)C)c4c3C2=O)NC(=O)/C(C)=C\C=C\C(C)C(O)C(C)C(O)C(C)C(OC(C)=O)C1C (stereo unspecified) | 7.28 | 8.86 | 8.16 | 7.86
26 | CCCCN(CC)C(=O)COc1cc2c(O)c3c(O)c(C)c4c(c13)C(=O)C(C)(O/C=C/C(OC)C(C)C(OC(C)=O)C(C)C(O)C(C)C(O)C(C)/C=C/C=C(/C)C(=O)N2)O4 (stereo unspecified) | 6.27 | 8.62 | 8.15 | 7.62
27 | COC1/C=C/OC2(C)Oc3c(C)c(O)c4c(O)c(cc(OCC(=O)N(C)Cc5ccccc5)c4c3C2=O)NC(=O)/C(C)=C\C=C\C(C)C(O)C(C)C(O)C(C)C(OC(C)=O)C1C (stereo unspecified) | 6.37 | 8.24 | 8.16 | 7.09
28 | COC1/C=C/OC2(C)Oc3c(C)c(O)c4c(O)c(cc(OCC(=O)Nc5ccc(Cl)cc5)c4c3C2=O)NC(=O)/C(C)=C\C=C\C(C)C(O)C(C)C(O)C(C)C(OC(C)=O)C1C (stereo unspecified) | 5.64 | 6.54 | 6.86 | 6.39
29 | CCN(C(=O)COc1cc2c(O)c3c(O)c(C)c4c(c13)C(=O)C(C)(O/C=C/C(OC)C(C)C(OC(C)=O)C(C)C(O)C(C)C(O)C(C)/C=C/C=C(/C)C(=O)N2)O4)c1ccccc1 (stereo unspecified) | 6.37 | 8.46 | 8.16 | 7.33
